Reference: US12522596B2, “Compounds as GLP-1R agonists” (Terns Pharmaceuticals, Inc., priority 2021, dated 2026)
“And” between values parts separate entries of the source, which are not always exact repeats. Equal entries are not always repeated. Where two headings read alike, the source gives them in different places. Marks after values point to notes of the source that are not given here.

Assay: Pharmacokinetics in hGLP-1R mice after oral dosing
Type: in vivo, male C57BL/6J hGLP-1R mouse
Experimental: IPGTT (120 min)—PK bleeding: 40 μL blood samples (all treatment groups) were collected from mice under the jaw at IPGTT-120 min after blood glucose measurement into pre-chilled EDTA-2K tubes. Blood samples were processed for plasma by centrifugation at 4° C., 3200×g for 10 min. 15 μL plasma was stored at −80° C. for PK analysis. From 4 mice in Group 7 of the PD cohort, whole brain was collected after blood is harvested at 120 min post dose, rinsed with saline and patted dry and placed into a pre-weighed tube and stored at −80° C. collected for PK analysis.
PK bleeding group design is described in Table 9.
PK bleeding: 30 μL blood was collected at 0.25, 0.5, 1, 2, 4, and 8 h. Blood samples were processed for plasma by centrifugation at 4° C., 3200×g for 10 min. 12 μL plasma was collected at −80° C. for further analysis. From 3 mice in Group 7 of the PK cohort, whole brain was collected after blood is harvested at 8 hr post dose, rinsed with saline and patted dry and placed into a pre-weighed tube and stored at −80° C. collected for PK analysis.
For plasma: An aliquot of 3 μL sample was protein precipitated with 60 μL internal standard (100 ng/mL Labetalol & 100 ng/ml Dexamethasone & 100 ng/ml Tolbutamide & 100 ng/mL Verapamil & 100 ng/ml Glyburide & 100 ng/ml Celecoxib in ACN) and then the mixture was vortex-mixed for 10 min at 800 rpm and centrifuged for 15 min at 3220×g, 4° C.
The linear/log trapezoidal rule was applied in obtaining the PK parameters. Individual plasma concentration values that were below the lower limit of quantitation (LOQ) were excluded from the PK parameter calculation. The nominal dose levels and nominal sampling times were used in the calculation of all pharmacokinetic parameters.

[1] = hGLP-1R mouse plasma, PO 0.3 mg/kg, individual mice, 0.3 mg/kg
[2] = hGLP-1R mouse plasma, PO 0.3 mg/kg, mean
[3] = hGLP-1R mouse plasma, PO 1 mg/kg, individual mice, 1 mg/kg
[4] = hGLP-1R mouse plasma, PO 1 mg/kg, mean
[5] = hGLP-1R mouse plasma, PO 3 mg/kg, individual mice, 3 mg/kg
[6] = hGLP-1R mouse plasma, PO 3 mg/kg, mean

Compound: N#Cc1ccc(COc2cccc(C3CCN(Cc4nc5ccc(C(=O)O)cc5n4Cc4cncs4)CC3)n2)c(F)c1 [Compound 2]
- higher AUClast than Reference Compound A (hGLP-1R mice, PO 0.3 mg/kg): four-fold
- higher Cmax than Reference Compound A (hGLP-1R mice, PO 0.3 mg/kg): three-fold
- higher AUClast than Reference Compound A (hGLP-1R mice, PO 1.0 mg/kg): approximately 4.6 fold
- higher Cmax than Reference Compound A (hGLP-1R mice, PO 1.0 mg/kg): approximately 5.7 fold
- increase in exposure values over a ten-fold increase in dose (hGLP-1R mice, PO 0.3 to 3 mg/kg): 22 fold
- increase of exposure with dose (dose proportionality) (hGLP-1R mice, PO, Reference Compound A 0.3-1 mg/kg, Compound 2 0.3-3 mg/kg): greater than proportional manner
- Concentration (hGLP-1R mouse plasma collected at 120 min (IPGTT cohort), PO 0.3 mg/kg, individual animals, 0.3 mg/kg): 26.1 ng/mL and 11.5 ng/mL and 15.0 ng/mL and 31.4 ng/mL and 17.3 ng/mL and 17.2 ng/mL and 13.1 ng/mL
- Concentration (hGLP-1R mouse plasma collected at 120 min (IPGTT cohort), PO 1 mg/kg, individual animals, 1 mg/kg): 61.2 ng/mL and 53.6 ng/mL and 148 ng/mL and 60.4 ng/mL and 60.3 ng/mL and 48.9 ng/mL and 56.3 ng/mL
- Concentration (hGLP-1R mouse plasma collected at 120 min (IPGTT cohort), PO 3 mg/kg, individual animals, 3 mg/kg): 159 ng/mL and 227 ng/mL and 555 ng/mL and 301 ng/mL and 239 ng/mL and 229 ng/mL and 231 ng/mL
- Concentration (hGLP-1R mouse plasma, PO 0.3 mg/kg, 0.25 h, individual animals, 0.3 mg/kg): 66.8 ng/mL and 116 ng/mL and 52.2 ng/mL
- Concentration (hGLP-1R mouse plasma, PO 0.3 mg/kg, 0.5 h, individual animals, 0.3 mg/kg): 60.3 ng/mL and 118 ng/mL
- Concentration (hGLP-1R mouse plasma, PO 0.3 mg/kg, 1 h, individual animals, 0.3 mg/kg): 49.2 ng/mL and 55.8 ng/mL
- Concentration (hGLP-1R mouse plasma, PO 0.3 mg/kg, 2 h, individual animals, 0.3 mg/kg): 18.2 ng/mL and 6.53 ng/mL and 7.14 ng/mL
- Concentration (hGLP-1R mouse plasma, PO 0.3 mg/kg, 4 h, individual animals, 0.3 mg/kg): 7.15 ng/mL and 1.84 ng/mL and 2.23 ng/mL
- Concentration (hGLP-1R mouse plasma, PO 0.3 mg/kg, 8 h, individual animals, 0.3 mg/kg): 1.64 ng/mL and BQL
- AUC0-inf [1]: 90.4 ng·h/mL and 120 ng·h/mL
- AUC0-last [1]: 87.0 ng·h/mL and 117 ng·h/mL
- AUCExtra [1]: 5.66% and 3.76% and 1.86%
- AUMCExtra [1]: 25.0% and 22.4% and 10.0%
- Cmax [1]: 66.8 ng/mL and 118 ng/mL
- MRT0-inf [1]: 2.49 h and 1.69 h and 0.928 h
- MRT0-last [1]: 1.98 h and 1.36 h and 0.851 h
- T1/2 [1]: 2.08 h and 1.44* h and 0.691* h
- Tlast [1]: 8.00 h (2×) and 4.00 h
- Tmax [1]: 0.250 h
- AUCExtra [2]: 3.76%
- AUMCExtra [2]: 19.1%
- Concentration (hGLP-1R mouse plasma, PO 1 mg/kg, 0.25 h, individual animals, 1 mg/kg): 208 ng/mL and 224 ng/mL
- Concentration (hGLP-1R mouse plasma, PO 1 mg/kg, 0.5 h, individual animals, 1 mg/kg): 256 ng/mL and 265 ng/mL
- Concentration (hGLP-1R mouse plasma, PO 1 mg/kg, 1 h, individual animals, 1 mg/kg): 183 ng/mL and 156 ng/mL
- Concentration (hGLP-1R mouse plasma, PO 1 mg/kg, 2 h, individual animals, 1 mg/kg): 77.6 ng/mL and 36.6 ng/mL and 31.7 ng/mL
- Concentration (hGLP-1R mouse plasma, PO 1 mg/kg, 4 h, individual animals, 1 mg/kg): 8.59 ng/mL and 6.36 ng/mL
- Concentration (hGLP-1R mouse plasma, PO 1 mg/kg, 8 h, individual animals, 1 mg/kg): 4.90 ng/mL and 6.23 ng/mL and 3.07 ng/mL
- Tlast (hGLP-1R mouse plasma, PO 1 mg/kg, individual mice): 8.00 h
- AUC0-inf [3]: 366 ng·h/mL and 326 ng·h/mL
- AUC0-last [3]: 352 ng·h/mL and 320 ng·h/mL
- AUCExtra [3]: 1.78% and 3.97% and 1.84%
- AUMCExtra [3]: 11.9% and 22.6% and 12.9%
- Cmax [3]: 256 ng/mL and 265 ng/mL
- MRT0-inf [3]: 1.81 h and 1.42 h
- MRT0-last [3]: 1.46 h and 1.26 h
- T1/2 [3]: 1.62* h and 1.36* h
- AUCExtra [4]: 2.53%
- AUMCExtra [4]: 15.8%
- Tlast [4]: 8.00 h
- Concentration (hGLP-1R mouse plasma, PO 3 mg/kg, 0.25 h, individual animals, 3 mg/kg): 823 ng/mL and 1030 ng/mL and 2870 ng/mL
- Concentration (hGLP-1R mouse plasma, PO 3 mg/kg, 0.5 h, individual animals, 3 mg/kg): 982 ng/mL and 937 ng/mL and 3450 ng/mL
- Concentration (hGLP-1R mouse plasma, PO 3 mg/kg, 1 h, individual animals, 3 mg/kg): 592 ng/mL and 387 ng/mL and 1990 ng/mL
- Concentration (hGLP-1R mouse plasma, PO 3 mg/kg, 2 h, individual animals, 3 mg/kg): 157 ng/mL and 100 ng/mL and 655 ng/mL
- Concentration (hGLP-1R mouse plasma, PO 3 mg/kg, 4 h, individual animals, 3 mg/kg): 48.1 ng/mL and 35.1 ng/mL and 170 ng/mL
- Tlast (hGLP-1R mouse plasma, PO 3 mg/kg, individual mice): 8.00 h
- AUC0-inf [5]: 1923 ng·h/mL and 1229 ng·h/mL and 4707 ng·h/mL
- AUC0-last [5]: 1497 ng·h/mL and 1154 ng·h/mL and 4673 ng·h/mL
- AUCExtra [5]: 22.2% and 6.12% and 0.710%
- AUMCExtra [5]: 63.8% and 30.6% and 4.74%
- Cmax [5]: 982 ng/mL and 1030 ng/mL and 3450 ng/mL
- MRT0-inf [5]: 4.39 h and 2.08 h and 1.46 h
- MRT0-last [5]: 1.54 h
- T1/2 [5]: 3.21* h and 1.68* h and 1.19 h
- Tmax [5]: 0.250 h
- AUCExtra [6]: 9.68%
- AUMCExtra [6]: 33.0%
- Tlast [6]: 8.00 h
- AUC(0-t) (male, C57BL/6J hGLP-1R, mouse, plasma, po, 0.3 mg/kg, hGLP-1R mice, total, PO 0.3 mg/kg, read-out: AUClast Mean): 107 ng·h/mL
- Cmax (male, C57BL/6J hGLP-1R, mouse, plasma, po, 0.3 mg/kg, hGLP-1R mice, total, PO 0.3 mg/kg, read-out: Cmax Mean): 82.7 ng/mL
- half-life (male, C57BL/6J hGLP-1R, mouse, plasma, po, 0.3 mg/kg, hGLP-1R mice, total, PO 0.3 mg/kg, read-out: T1/2 (converted)): 1.4 h
- Tmax (male, C57BL/6J hGLP-1R, mouse, plasma, po, 0.3 mg/kg, hGLP-1R mice, total, PO 0.3 mg/kg, read-out: Tmax Median): 0.5 h
- concentration at 120 min (male, C57BL/6J hGLP-1R, mouse, plasma, po, 0.3 mg/kg, hGLP-1R mouse plasma collected at 120 min (IPGTT cohort), PO 0.3 mg/kg, read-out: Mean Concentration): 18.8 ng/mL
- concentration at 0.25 h (male, C57BL/6J hGLP-1R, mouse, plasma, po, 0.3 mg/kg, hGLP-1R mouse plasma, PO 0.3 mg/kg, 0.25 h, read-out: Mean Concentration): 78.3 ng/mL
- concentration at 0.5 h (male, C57BL/6J hGLP-1R, mouse, plasma, po, 0.3 mg/kg, hGLP-1R mouse plasma, PO 0.3 mg/kg, 0.5 h, individual animals, read-out: Concentration): 63.4 ng/mL
